The results in this text go back to article PMC9862037, “Interactions of Mycotoxin Alternariol with Cytochrome P450 Enzymes and OATP Transporters” (Metabolites, 2022).

One data set addresses T1, OATP2B1 (Homo sapiens, UniProt O94956).
T1 construct: expressed in transfected cells; host or cells: A431
Kind of data set: cell-based. As to conditions: A431-OATP2B1; pyranine 20 µM; pH 5.5; 15 min; read-out: IC50, OATP2B1 inhibition. The method, then:
(§1) A431 cell lines overexpressing human OATPs (1A2, 1B1, 1B3, or 2B1) and their mock transfected controls were generated earlier. A431 cells expressed no or negligible OATPs compared to the overexpressing cell lines. Cells were cultured in Dulbecco’s modified Eagle medium (DMEM, Thermo Fisher Scientific, Waltham, MA, USA) with 10% fetal bovine serum, 2 mM L-glutamine, 100 U/mL penicillin, and 100 µg/mL streptomycin at 37 °C, with 5% CO2. OATP expression was regularly monitored (based on the transport activity of transfected cells), and the cells were used up to 20 passages.
(§2) Interaction between OATPs (1A2, 1B1, 1B3, and 2B1) and AOH was measured in an indirect transport assay with pyranine or sulforhodamine 101 as fluorescent probes. A431 cell overexpressing OATPs or their mock transfected controls were seeded on 96-well plates one day prior to the measurements in 200 µL DMEM in 8 × 10^4 cells/well density. Before the measurement, the medium was removed, and cells were washed three times with 200 µL PBS (phosphate-buffered saline, pH 7.2) at room temperature. Then the cells were preincubated with 50 µL uptake buffer (125 mM NaCl, 4.8 mM KCl, 1.2 mM CaCl2, 1.2 mM KH2PO4, […], 25 mM MES, and 5.6 mM glucose, with the pH adjusted using 1 M HEPES and 10 N NaOH, pH 5.5 for OATP1B1/1B3/2B1 and pH 7.4 for OATP1A2) with or without increasing concentrations (0.00, 0.16, 0.31, 0.63, 1.25, 2.5, 5.0, 10, and 20 μM) of AOH for 5 min. The reaction was started when the probe was added in 10 µM (pyranine; OATP1B1), 20 µM (pyranine; OATP2B1 and OATP1B3), or 0.5 µM (sulforhodamine 101; OATP1A2) final concentrations. […] Fluorescence was measured in an Enspire plate reader (Perkin Elmer, Waltham, MA, USA) in Ex/Em wavelengths 460/510 nm for pyranine and 586/605 nm for sulforhodamine 101. Bottom reading was applied with two horizontal (X) and two vertical (Y) points, measurement height was 3 mm with 200 flashes. IC50 values were calculated by sigmoidal fitting (Hill1), using the Origin (version 2018, OriginLab Corporation, Northampton, MA, USA) software.

For another data set, the target named is T2, OATP1B3 (Homo sapiens, UniProt Q9NPD5).
T2 construct: expressed in transfected cells; host or cells: A431
Kind of data set: cell-based. As to conditions: A431-OATP1B3; pyranine 20 µM; pH 5.5; 30 min; read-out: IC50, OATP1B3 inhibition. The method, then:
as §1, §2

A further data set deals with T3, OATP1A2 (Homo sapiens, UniProt P46721).
T3 construct: expressed in transfected cells; host or cells: A431
Kind of data set: cell-based. As to conditions: A431-OATP1A2; sulforhodamine 101 0.5 µM; pH 7.4; 10 min; read-out: IC50, OATP1A2 inhibition. As to the method:
as §1, §2

For another data set, the target named is T4, CYP1A2 (Homo sapiens, UniProt P05177).
T4 construct: purchased Abcam ab211075
Put plainly: biochemical. The method, then:
CYP1A2 Inhibitor Assay Kit (Abcam; Cambridge, UK) was applied following the manufacturer’s description, where the inhibitory action of 0.000, 0.001, 0.010, 0.050, 0.10, 0.20, 0.50, 1.25, 3.0, 10, and 25 μM AOH concentrations were tested.
(§3) IC50 values were calculated by sigmoidal fitting (Hill1), using the Origin (version 2018, OriginLab Corporation, Northampton, MA, USA) software.

The target in another data set is T5, CYP3A4 (Homo sapiens, UniProt P08684).
T5 construct: purchased Merck; host or cells: yeast (inferred from the description of the CYPnull control, 'processed identically')
Type of data set: biochemical. As to conditions: plateau above 10 μM AOH. As to the method: (§4) The potential inhibitory effects of AOH on CYP2C9, 2C19, 2D6, and 3A4 enzymes were tested in vitro employing CypExpress human kits, using the substrates recommended by the U.S. Food and Drug Administration (FDA; https://www.fda.gov/drugs/drug-interactions-labeling/drug-development-and-drug-interactions-table-substrates-inhibitors-and-inducers; accessed on 19 December 2022) (diclofenac, S-mephenytoin, dextromethorphan, and testosterone, respectively). The impacts of increasing concentrations of AOH (0.00, 0.05, 0.50, 2.0, 5.0, 10, 25, 30, and 50 μM) were examined on diclofenac 4′-hydroxylation (CYP2C9), S-mephenytoin 4-hydroxylation (CYP2C19), dextromethorphan demethylation (CYP2D6), and testosterone 6β-hydroxylation (CYP3A4) as described previously, without modifications. In these assays, the substrates and products were quantified by HPLC-UV [28].
as §3
(§5) After CYP450 incubations, the product formation rate was investigated using an integrated HPLC system (Jasco, Tokyo, Japan) built up from an autosampler (AS-4050), a binary pump (PU-4180), and a UV detector (UV-975). Chromatographic data were evaluated employing ChromNAV2 software (Jasco, Tokyo, Japan). Quantitative determinations of 4′-hydroxydiclofenac and diclofenac (CYP2C9), 4-hydroxymephenytoin and mephenytoin (CYP2C19), dextromethorphan and dextrorphan (CYP2D6), as well as testosterone and 6β-hydroxytestosterone (CYP3A4) were carried out as previously reported, without modifications.

The next data set has as its target T6, CYP2C19 (Homo sapiens, UniProt P33261).
T6 construct: purchased Merck; host or cells: yeast (inferred from the description of the CYPnull control, 'processed identically')
Type of data set: biochemical. The method, then:
as §4, §3, §5

For the next data set, the target named is T7, CYP2D6 (Homo sapiens, UniProt P10635).
T7 construct: purchased Merck; host or cells: yeast (inferred from the description of the CYPnull control, 'processed identically')
Type of data set: biochemical. As to conditions: 50 μM AOH. As to the method:
as §4, §3, §5

Usually IC50 stands for the concentration that gives 50% inhibition.

T4 sequence (P05177 whole entry): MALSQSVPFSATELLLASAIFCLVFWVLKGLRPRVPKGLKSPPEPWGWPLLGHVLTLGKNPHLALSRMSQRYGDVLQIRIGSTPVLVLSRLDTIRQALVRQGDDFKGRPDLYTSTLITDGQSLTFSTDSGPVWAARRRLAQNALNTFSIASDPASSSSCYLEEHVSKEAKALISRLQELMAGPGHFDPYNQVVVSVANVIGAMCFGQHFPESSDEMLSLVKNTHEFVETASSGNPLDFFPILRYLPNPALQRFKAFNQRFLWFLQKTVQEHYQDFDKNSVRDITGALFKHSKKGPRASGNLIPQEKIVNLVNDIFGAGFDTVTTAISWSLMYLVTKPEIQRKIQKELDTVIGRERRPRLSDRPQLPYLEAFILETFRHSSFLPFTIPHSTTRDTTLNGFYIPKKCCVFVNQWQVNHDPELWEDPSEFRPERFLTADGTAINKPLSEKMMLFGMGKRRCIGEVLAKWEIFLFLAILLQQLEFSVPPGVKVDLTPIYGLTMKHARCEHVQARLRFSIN
T6 sequence (P33261 whole entry): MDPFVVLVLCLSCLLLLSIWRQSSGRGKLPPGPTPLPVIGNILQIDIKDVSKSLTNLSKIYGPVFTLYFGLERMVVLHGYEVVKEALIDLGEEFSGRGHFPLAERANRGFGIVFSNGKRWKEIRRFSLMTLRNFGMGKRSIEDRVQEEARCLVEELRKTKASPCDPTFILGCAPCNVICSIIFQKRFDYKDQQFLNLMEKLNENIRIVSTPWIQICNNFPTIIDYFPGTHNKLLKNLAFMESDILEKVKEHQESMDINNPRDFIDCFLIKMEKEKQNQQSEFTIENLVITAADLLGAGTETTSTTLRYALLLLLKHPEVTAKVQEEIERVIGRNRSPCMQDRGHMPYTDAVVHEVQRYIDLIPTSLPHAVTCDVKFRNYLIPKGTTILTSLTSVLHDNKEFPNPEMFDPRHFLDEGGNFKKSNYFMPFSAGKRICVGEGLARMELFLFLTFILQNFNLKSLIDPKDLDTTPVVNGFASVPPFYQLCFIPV
T3 sequence (P46721 whole entry): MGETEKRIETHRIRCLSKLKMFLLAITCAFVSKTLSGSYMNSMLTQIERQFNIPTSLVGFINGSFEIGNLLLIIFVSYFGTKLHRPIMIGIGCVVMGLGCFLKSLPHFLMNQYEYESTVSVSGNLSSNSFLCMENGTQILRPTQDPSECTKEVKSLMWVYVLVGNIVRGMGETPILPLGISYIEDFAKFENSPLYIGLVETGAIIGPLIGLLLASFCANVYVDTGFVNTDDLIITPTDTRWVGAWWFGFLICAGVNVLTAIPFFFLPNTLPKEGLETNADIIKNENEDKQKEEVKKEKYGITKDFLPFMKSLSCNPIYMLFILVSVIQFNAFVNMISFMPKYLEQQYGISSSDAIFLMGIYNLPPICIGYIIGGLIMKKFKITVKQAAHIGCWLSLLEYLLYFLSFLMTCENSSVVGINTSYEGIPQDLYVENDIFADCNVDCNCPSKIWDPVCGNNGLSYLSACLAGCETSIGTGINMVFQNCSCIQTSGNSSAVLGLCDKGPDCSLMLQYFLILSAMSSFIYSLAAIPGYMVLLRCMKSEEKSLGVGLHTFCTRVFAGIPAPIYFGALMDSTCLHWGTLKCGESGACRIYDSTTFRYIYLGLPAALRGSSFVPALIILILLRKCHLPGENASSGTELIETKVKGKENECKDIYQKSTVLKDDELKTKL
T1 sequence (O94956 whole entry): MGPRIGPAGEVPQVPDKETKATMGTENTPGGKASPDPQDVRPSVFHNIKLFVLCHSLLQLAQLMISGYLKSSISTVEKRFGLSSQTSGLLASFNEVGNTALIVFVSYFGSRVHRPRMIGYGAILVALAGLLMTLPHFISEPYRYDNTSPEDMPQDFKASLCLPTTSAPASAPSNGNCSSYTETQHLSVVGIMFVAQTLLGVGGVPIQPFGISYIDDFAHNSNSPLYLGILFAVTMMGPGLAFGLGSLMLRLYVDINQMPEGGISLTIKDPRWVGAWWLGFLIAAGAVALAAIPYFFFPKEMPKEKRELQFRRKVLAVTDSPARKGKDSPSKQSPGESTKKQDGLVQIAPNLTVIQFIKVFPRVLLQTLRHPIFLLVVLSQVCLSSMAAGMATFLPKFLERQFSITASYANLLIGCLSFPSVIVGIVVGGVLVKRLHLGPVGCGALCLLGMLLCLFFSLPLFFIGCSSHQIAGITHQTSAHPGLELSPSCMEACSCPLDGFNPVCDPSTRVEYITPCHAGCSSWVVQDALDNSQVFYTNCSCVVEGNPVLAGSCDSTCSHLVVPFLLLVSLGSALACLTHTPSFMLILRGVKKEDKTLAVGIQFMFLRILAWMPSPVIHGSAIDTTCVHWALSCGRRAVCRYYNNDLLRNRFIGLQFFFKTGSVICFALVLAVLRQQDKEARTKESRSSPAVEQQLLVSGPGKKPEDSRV
T5 sequence (P08684 whole entry): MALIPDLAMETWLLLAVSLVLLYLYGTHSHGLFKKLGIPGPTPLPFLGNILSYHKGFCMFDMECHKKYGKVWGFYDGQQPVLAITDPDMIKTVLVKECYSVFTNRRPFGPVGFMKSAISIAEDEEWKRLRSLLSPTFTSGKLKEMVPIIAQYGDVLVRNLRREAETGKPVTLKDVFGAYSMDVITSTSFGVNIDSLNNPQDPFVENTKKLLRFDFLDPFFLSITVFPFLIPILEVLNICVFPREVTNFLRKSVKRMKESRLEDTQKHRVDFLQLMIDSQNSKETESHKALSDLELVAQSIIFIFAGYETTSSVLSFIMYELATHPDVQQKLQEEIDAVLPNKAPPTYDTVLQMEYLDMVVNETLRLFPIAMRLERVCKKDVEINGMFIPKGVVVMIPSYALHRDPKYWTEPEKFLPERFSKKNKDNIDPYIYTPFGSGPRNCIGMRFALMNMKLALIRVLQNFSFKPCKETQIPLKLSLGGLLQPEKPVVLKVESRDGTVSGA
T7 sequence (P10635 whole entry): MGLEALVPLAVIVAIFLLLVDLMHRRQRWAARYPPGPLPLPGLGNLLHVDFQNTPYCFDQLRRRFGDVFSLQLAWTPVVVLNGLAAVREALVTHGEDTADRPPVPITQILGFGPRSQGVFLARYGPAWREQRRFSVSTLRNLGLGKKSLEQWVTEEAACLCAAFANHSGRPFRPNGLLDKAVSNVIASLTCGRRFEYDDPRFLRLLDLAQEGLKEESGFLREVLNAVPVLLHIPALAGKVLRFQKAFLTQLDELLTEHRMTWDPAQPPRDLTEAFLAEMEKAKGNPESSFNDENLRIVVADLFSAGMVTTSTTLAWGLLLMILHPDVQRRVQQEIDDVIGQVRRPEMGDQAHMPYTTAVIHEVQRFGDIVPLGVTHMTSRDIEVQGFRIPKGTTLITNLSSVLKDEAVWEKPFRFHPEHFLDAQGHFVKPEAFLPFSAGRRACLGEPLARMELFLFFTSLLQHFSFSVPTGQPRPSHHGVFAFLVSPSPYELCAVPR
T2 sequence (Q9NPD5 whole entry): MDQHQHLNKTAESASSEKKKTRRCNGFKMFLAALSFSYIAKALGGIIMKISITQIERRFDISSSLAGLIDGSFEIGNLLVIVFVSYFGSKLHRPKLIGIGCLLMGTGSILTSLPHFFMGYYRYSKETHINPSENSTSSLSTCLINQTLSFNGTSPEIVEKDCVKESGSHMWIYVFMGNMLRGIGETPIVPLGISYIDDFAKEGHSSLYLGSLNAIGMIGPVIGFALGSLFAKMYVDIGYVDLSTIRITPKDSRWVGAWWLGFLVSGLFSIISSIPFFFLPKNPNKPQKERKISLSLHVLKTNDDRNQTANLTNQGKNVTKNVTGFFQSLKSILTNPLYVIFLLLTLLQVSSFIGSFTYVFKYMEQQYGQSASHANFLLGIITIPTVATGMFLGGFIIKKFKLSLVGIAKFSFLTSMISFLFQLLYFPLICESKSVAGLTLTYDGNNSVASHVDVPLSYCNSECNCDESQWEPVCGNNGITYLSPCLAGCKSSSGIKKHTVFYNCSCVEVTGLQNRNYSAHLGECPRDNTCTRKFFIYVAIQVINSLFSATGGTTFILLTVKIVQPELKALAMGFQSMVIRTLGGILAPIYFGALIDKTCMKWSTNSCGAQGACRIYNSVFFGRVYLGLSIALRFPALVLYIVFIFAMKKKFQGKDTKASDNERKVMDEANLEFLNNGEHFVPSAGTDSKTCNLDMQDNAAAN

Take `Cc1cc(O)cc2oc(=O)c3c(O)cc(O)cc3c12` [AOH, Alternariol]: the IC50 came to 1900 nM on OATP2B1; 4100 nM at OATP1B3; 5400 nM at OATP1A2; 150 nM at CYP1A2 (fluorometric kit, AOH 0-25 μM, read-out: IC50, CYP1A2 inhibition). The “CYP1A2 inhibition at 0.05 μM” value at CYP1A2 (0.05 μM AOH, p < 0.01) was “statistically significant”. Further, the “CYP1A2 inhibition at 10 μM” value at CYP1A2 (10 μM AOH) is on record as “close to complete”. Moreover, on CYP3A4, the “CYP3A4 inhibition (decrease in metabolite formation)” value is reported as “approximately 40%”. Also, on CYP2C19 (5 μM AOH, p < 0.01), the “CYP2C19 inhibition at 5 μM” value was “significantly (p < 0.01) inhibited”. Moreover, the “decrease in 4-hydroxymephenytoin production (CYP2C19)” value on CYP2C19 (50 μM AOH (highest concentration)) came to 55%. Besides, on CYP2D6, the “effect on CYP2D6-catalyzed dextromethorphan demethylation” value is reported as “not affected”.
